Reference: patent US20240100121A1, “COMPOSITIONS OF A BETA-HAIRPIN PEPTIDOMIMETIC AND AEROSOL DOSAGE FORMS THEREOF” (priority 2020, published 2024)
Converted amounts (≈) assume the structure as drawn. Read-outs that look alike come from different tables or passages of the source. Where a SMILES comes first, the peptide text is derived from it. [ ]: non-standard residue; d: D form. dDab = NCC[C@@H](N)C(=O)O; Orn = NCCC[C@H](N)C(=O)O; Dab = NCC[C@H](N)C(=O)O

Experiments:
[1] = tested on: Pseudomonas aeruginosa isolates from respiratory samples of people with cystic fibrosis; experiment: Planktonic susceptibility (MIC) of CF isolates; assay type: cell-based
Text: (§1) To perform biofilm tests with the Calgary device, fifty-three Pseudomonas aeruginosa isolates from respiratory samples of people with cystic fibrosis were selected among the 414 Pseudomonas aeruginosa of the iABC-collection (Ekkelenkamp M B et al., Antimicrob. Agents Chemother. 2019, 64, 1-7). A representative number of isolates from Northern Ireland, Spain, the Netherlands, and Australia were chosen, including different morphotyes: 18 smooth, 11 mucoid, 11 rough, 10 metallic, and 3 small colony variants. As control strains, the PAO (most commonly used strain for research on this ubiquitous and metabolically versatile opportunistic pathogen, Klockgether J et al., Journal of Bacteriology 2010, 192, 1113-1121) and its hypermutator derivative, PAO mutS strains were used (Oliver A et al., Antimicrob. Agents Chemother. 2004, 48, 4226-33).

[2] = tested on: Pseudomonas aeruginosa isolates from respiratory samples of people with cystic fibrosis growing in biofilms; assay type: cell-based
Text: (§2) Two types of assays, an open and a closed system, were used to evaluate the in vitro activity on biofilms. The closed or static system based on the Calgary device (Diez-Aguilar M et al., Antimicrob Agents Chemother. 2018, 62, e01650-17, doi: 10.1128/AAC.01650-17, Moskowitz S M et al., J. Clin. Microbiol. 2004, 42, 1915-1922) analyzes biofilm formation in the wells of microtiter plates and is suitable for high-throughput analysis, obtaining pharmacodynamics (PD) parameters, while the open or dynamic system using the BioFlux device (Benoit M R et al., Appl. Environ. Microbiol. 2010, 76, 4136-4142) better resembles the in vivo conditions.
as §1
(§3) This assay was performed as previously described but with minimal variations (Benoit M R et al., Appl. Environ. Microbiol. 2010, 76, 4136-4142) (FIG. 3). Briefly, a 0.5 McFarland culture was transferred to a flat-bottom 96-well microtiter plate (Nalge Nunc International, Rochester, New York, USA). Bacterial biofilm was formed around the pegs of a modified polystyrene microtiter lid. This lid with pegs was immersed into a growth plate and incubated for 20 h at 37° C. After rinsing the pegs 3 times in saline solution they were placed onto the antimicrobial in BBL™ Mueller-Hinton II cation-adjusted broth (MHB) (Becton, Dickinson and Company, Sparks, MD, USA) and incubated for 20 h at 37° C. […] After this incubation, the biofilm was recovered centrifuging (800 RPM/10 min) the peg lid in an antibiotic-free MHB filled-microtiter plate. The minimal biofilm inhibitory concentration (MBIC) was calculated after measuring the optical density (OD) (450 nm) before and after 6-hour incubation. Biofilm growth was defined as a mean OD difference of ≥0.05. […] The minimal biofilm eradication concentration (MBEC) was defined as the lowest concentration that prevents visible growth in the biofilm recovery medium after 18 h of the microtiter plate incubation (Ceri H et al., J. Clin. Microbiol. 1999, 37, 1771; Macià M D et al., Enferm. Infecc. Microbiol. Clin. 2018, 36, 375-381).
MBIC and the MBEC are used to determine the anti-biofilm antibiotic in vitro efficacy. MBIC is the lowest concentration at which there is no time-dependent increase in the mean number of biofilm viable cells comparing an early with a later exposure time, while the MBEC indicates the eradication (partly or completely) of biofilm viable cells (Thieme L et al., Biol. Proced. Online 2019, 21, 1-5).

PAO mutS [3] = assay type: cell-based, Pseudomonas aeruginosa
Protocol: (§4) Two CF isolates, PA34 (smooth phenotype) and PA40 (mucoid phenotype), and the 2 reference strains PAO and PAO mutS were tested with the BioFlux device. None of the clinical strains were hypermutators.
as §3
(§5) Planktonic and biofilm susceptibility of the strains established in the Calgary device and used in the BioFlux device are described in Table 12.

PA40 (mucoid phenotype) [4] = assay type: cell-based, Pseudomonas aeruginosa
Protocol: as §4, §3, §5

PAO [5] = assay type: cell-based, Pseudomonas aeruginosa
Protocol: as §4, §3, §5

PA34 (smooth phenotype) [6] = assay type: cell-based, Pseudomonas aeruginosa
Protocol: as §4, §3, §5

PAO mutS [7] = experiment: Planktonic susceptibility (MIC), PAO mutS; assay type: cell-based, Pseudomonas aeruginosa
Protocol: as §4, §5

PA40 (mucoid phenotype) [8] = experiment: microbe, parasite or virus in culture; assay type: cell-based, Pseudomonas aeruginosa
Protocol: as §4, §5

PAO [9] = experiment: microbe, parasite or virus in culture; assay type: cell-based, Pseudomonas aeruginosa
Protocol: as §4, §5

PA34 (smooth phenotype) [10] = experiment: microbe, parasite or virus in culture; assay type: cell-based, Pseudomonas aeruginosa
Protocol: as §4, §5

[11] = 28-day dose inhalation study in CD-1 mice; assay type: in vivo
Protocol: (§6) In the 28-day dose inhalation study in CD-1 mice (20-minute snout only exposure), the mean estimated achieved doses of 0.8, 3.5 and 7.2 mg/kg/day murepavadin free base were administered. […] There were no other findings considered test item related.

[12] = set-up: species or system cynomolgus monkeys; details: cynomolgus monkey, in vivo
Protocol: as §6

[13] = tested on: clinical Pseudomonas aeruginosa isolates; experiment: Mouse lung infection model (PK-PD); assay type: in vivo
[14] = tested on: Pseudomonas aeruginosa biofilms (PAO, PAO mutS, PA34, PA40); experiment: Biofilm assays performed by the BioFlux microfluidic open system; assay type: cell-based; details: both open and closed biofilm-testing systems
Text: as §2, with “conditions. […]” for “conditions.”
Several biofilms were simultaneously developed in a 48 wells plate in the BioFlux 200 system, following an adapted protocol from Benoit M R et al. (Appl. Environ. Microbiol. 2010, 76, 4136-4142). […] Biofilm images were taken using a Nikon Eclipse Ti microscope (Nikon, Tokyo, Japan) and analyzed with the ImageJ program (Java-based image processing program, National Institute of Health, Bethesda, Maryland, USA and Laboratory for Optical and Computational Instrumentation, University of Wisconsin, Wisconsin, USA). The mean percentage of intensity of red fluorescence corresponding to dead cells within the biofilm is represented in a bar chart as black bar (FIG. 4). […]

[15] = tested on: PAO, PAO mutS, PA40, PA34; experiment: Planktonic susceptibility of all strains used in the BioFlux device; assay type: cell-based, Pseudomonas aeruginosa
Protocol: as §4, §5

[16] = Pseudomonas aeruginosa, read-out: MIC50
[17] = Pseudomonas aeruginosa, read-out: MIC90
[18] = biofilm, Calgary device, CF isolates
[19] = Pseudomonas aeruginosa, PA40, read-out: MIC
[20] = Pseudomonas aeruginosa, PAO, read-out: MIC
[21] = Pseudomonas aeruginosa, PA34, read-out: MIC

Molecule: C[C@H]1[C@H](NC(=O)/C(=N\OC(C)(C)C(=O)O)c2csc(N)n2)C(=O)N1S(=O)(=O)O [aztreonam]
- MIC range [1]: 0.5 to 512 µg/mL
- MIC50 [1, 16]: 4 µg/mL (≈ 9.19 µM)
- MIC90 [1, 17]: 256 µg/mL (≈ 588 µM)
- MBEC50 [2, 18]: 512/>512 mg/L
- MBEC90 [2, 18]: 512/>512 mg/L
- MBIC50 [2, 18]: 32 mg/L
- MBIC90 [2, 18]: > 512 mg/L
- MBEC (PAO mutS [3]): >256 mg/L
- MBIC (PAO mutS [3]): >256 mg/L
- MBEC (PA40 (mucoid phenotype) [4]; PA40): >256 mg/L
- MBIC (PA40 (mucoid phenotype) [4]; PA40): 32 mg/L
- MBEC (PAO [5]; PAO): >256 mg/L
- MBIC (PAO [5]; PAO): >256 mg/L
- MBEC (PA34 (smooth phenotype) [6]; PA34): 256 mg/L
- MBIC (PA34 (smooth phenotype) [6]; PA34): 8 mg/L
- MIC (PAO mutS [7]; Pseudomonas aeruginosa): 64 µg/mL (≈ 147 µM)
- MIC (PA40 (mucoid phenotype) [8]; [19]): 16 µg/mL (≈ 36.7 µM)
- MIC (PAO [9]; [20]): 4 µg/mL (≈ 9.19 µM)
- MIC (PA34 (smooth phenotype) [10]; [21]): 0.5 µg/mL (≈ 1.15 µM)

Molecule: CC[C@H](C)[C@@H]1NC(=O)[C@H](Cc2c[nH]c3ccccc23)NC(=O)[C@H]([C@@H](C)O)NC(=O)[C@@H]2CCCN2C(=O)[C@H]2CCCN2C(=O)[C@H](CO)NC(=O)[C@H](C)NC(=O)[C@H](CCN)NC(=O)[C@H](CCN)NC(=O)[C@H](Cc2c[nH]c3ccccc23)NC(=O)[C@H](CCN)NC(=O)[C@@H](CCN)NC(=O)[C@H](CCCN)NC(=O)[C@H](CCN)NC1=O [murepavadin, cyclo(-Thr-Trp-Ile-Dab-Orn-^DDab-Dab-Trp-Dab-Dab-Ala-Ser-^DPro-Pro-)] (cyclo(TWI[Dab][Orn][dDab][Dab]W[Dab][Dab]AS[dP]P); ring closure inferred)
- MIC50 [1]: ≤ 0.5 µg/mL
- MIC90 [1]: 1 µg/mL (≈ 0.644 µM)
- MIC range [1]: ≤0.5 to 32 µg/mL
- No Observed Adverse Effect Level (NOAEL) ([11]; 28-day inhalation, 0.8, 3.5 and 7.2 mg/kg/day, adverse pathology in the upper respiratory tract): no No Observed Adverse Effect Level (NOAEL) could be established
- systemic toxicity ([11]; 28-day inhalation, 20-minute snout only exposure, up to 7.2 mg/kg/day murepavadin free base): no evidence of systemic toxicity
- microscopic test item related findings at the tracheal bifurcation [12]: not considered adverse
- reduction of bacterial burden ([13]; IT doses of 0.075-0.625 mg/kg, three out of four clinical isolates): > 2 log10
- achieved dose required to attain the ELF AUC exposure ([13]; inhalation administration): 0.18 mg/kg
- achieved dose required to attain the ELF AUC exposure ([13]; intra-tracheal (i.t.) administration): 0.10 mg/kg
- mean AUC exposure in ELF sufficient to achieve a 1-login reduction of bacterial burden ([13]; subcutaneous injection, 15 clinical Pseudomonas aeruginosa isolates): 12.23 h·mg/L
- MBEC50 [2]: 16 mg/L
- MBEC90 [2, 18]: 64 mg/L
- MBIC50 [2, 18]: 4 mg/L
- MBIC90 [2, 18]: 32 mg/L
- MBIC range [2, 18]: ≤0.5 to 64 mg/L
- activity against biofilms of Pseudomonas aeruginosa [14]: displayed activity
- MBEC (PAO mutS [3]): 256 mg/L
- MBIC (PAO mutS [3]): 32 mg/L
- MBEC (PA40 (mucoid phenotype) [4]): 8 mg/L
- MBIC (PA40 (mucoid phenotype) [4]): 2 mg/L
- MBEC (PAO [5]): 8 mg/L
- MBIC (PAO [5]): 4 mg/L
- MBEC (PA34 (smooth phenotype) [6]): 4 mg/L
- MBIC (PA34 (smooth phenotype) [6]): 2 mg/L
- MIC ([15]; all tested strains susceptible): 0.12 µg/mL (≈ 0.0772 µM)
- MIC (PA40 (mucoid phenotype) [8]): 0.06 µg/mL (≈ 0.0386 µM)
- MIC (PAO [9]): 0.06 µg/mL (≈ 0.0386 µM)
- MIC (PA34 (smooth phenotype) [10]): 0.06 µg/mL (≈ 0.0386 µM)

Molecule: NC[C@H]1O[C@H](O[C@H]2[C@H](O)[C@@H](O[C@H]3O[C@H](CO)[C@@H](O)[C@H](N)[C@H]3O)[C@H](N)C[C@@H]2N)[C@H](N)C[C@@H]1O [tobramycin]
- MIC range [1]: ≤0.5 to 256 µg/mL
- MIC50 [1, 16]: 2 µg/mL (≈ 4.28 µM)
- MIC90 [1, 17]: 16 µg/mL (≈ 34.2 µM)
- MBEC50 [2, 18]: 8 mg/L
- MBEC90 [2, 18]: 256 mg/L
- MBEC range [2, 18]: ≤0.5 to 512 mg/L
- MBIC50 [2, 18]: 2 mg/L
- MBIC90 [2, 18]: 32 mg/L
- MBIC range [2, 18]: ≤0.5 to 512 mg/L
- MBEC (PAO mutS [3]): 32 mg/L
- MBIC (PAO mutS [3]): 16 mg/L
- MBEC (PA40 (mucoid phenotype) [4]; PA40): 4 mg/L
- MBIC (PA40 (mucoid phenotype) [4]; PA40): 2 mg/L
- MBEC (PAO [5]; PAO): 16 mg/L
- MBIC (PAO [5]; PAO): 2 mg/L
- MBEC (PA34 (smooth phenotype) [6]; PA34): 2 mg/L
- MBIC (PA34 (smooth phenotype) [6]; PA34): 2 mg/L
- MIC (PAO mutS [7]; Pseudomonas aeruginosa): 2 µg/mL (≈ 4.28 µM)
- MIC ([15]; Pseudomonas aeruginosa): 2 µg/mL (≈ 4.28 µM)
- MIC (PA40 (mucoid phenotype) [8]; [19]): 0.5 µg/mL (≈ 1.07 µM)
- MIC (PAO [9]; [20]): 0.5 µg/mL (≈ 1.07 µM)
- MIC (PA34 (smooth phenotype) [10]; [21]): 0.25 µg/mL (≈ 0.535 µM)

Molecule: colistin
- MIC50 [1]: 1 µg/mL
- MIC90 [1]: 4 µg/mL
- MIC range [1]: ≤0.5 to 16 µg/mL
- MBEC50 [2, 18]: 64 mg/L
- MBEC90 [2, 18]: 128 mg/L
- MBEC range [2, 18]: ≤0.5 to 256 mg/L
- MBIC50 [2, 18]: 8 mg/L
- MBIC90 [2, 18]: 64 mg/L
- MBIC range [2, 18]: ≤0.5 to 256 mg/L
- MBEC (PAO mutS [3]): 256 mg/L
- MBIC (PAO mutS [3]): 256 mg/L
- MBEC (PA40 (mucoid phenotype) [4]; PA40): 32 mg/L
- MBIC (PA40 (mucoid phenotype) [4]; PA40): 32 mg/L
- MBEC (PAO [5]; PAO): 128 mg/L
- MBIC (PAO [5]; PAO): 64 mg/L
- MBEC (PA34 (smooth phenotype) [6]; PA34): 128 mg/L
- MBIC (PA34 (smooth phenotype) [6]; PA34): 32 mg/L
- MIC (PAO mutS [7]; PAO mutS): 1 µg/mL
- MIC ([15]; all tested strains susceptible): 2 µg/mL
- MIC (PA40 (mucoid phenotype) [8]; PA40): 0.5 µg/mL
- MIC (PAO [9]; PAO): 1 µg/mL
- MIC (PA34 (smooth phenotype) [10]; PA34): 2 µg/mL
